The values that follow come from ChEMBL document CHEMBL1177724, “Design, synthesis, and structure-activity relationship studies of novel 2,4,6-trisubstituted-5-pyrimidinecarboxylic acids as peroxisome proliferator-activated receptor gamma (PPARgamma) partial agonists with comparable antidiabetic efficacy to rosiglitazone” (J Med Chem, 2010).

The term EC50 denotes the concentration that produces a half-maximal response. A word on the solubility: it is the concentration that dissolves in the medium under given conditions. The bioavailability is dose-corrected exposure relative to a reference, in per cent. As a reminder, the AUC is the area under the concentration-time curve, a measure of exposure. Usually half-life stands for the time needed for the level to fall by half in the phase considered. As usually defined, the Vd is the apparent volume that relates the amount in the body to the concentration in plasma or blood. One may read the clearance as the volume of plasma or blood freed of the substance per unit of time. One may read the IC50 as the concentration that gives 50% inhibition.

Data set [1] concerns the target T1, Peroxisome proliferator-activated receptor gamma (Homo sapiens, UniProt P37231).
T1 sequence (P37231 whole entry): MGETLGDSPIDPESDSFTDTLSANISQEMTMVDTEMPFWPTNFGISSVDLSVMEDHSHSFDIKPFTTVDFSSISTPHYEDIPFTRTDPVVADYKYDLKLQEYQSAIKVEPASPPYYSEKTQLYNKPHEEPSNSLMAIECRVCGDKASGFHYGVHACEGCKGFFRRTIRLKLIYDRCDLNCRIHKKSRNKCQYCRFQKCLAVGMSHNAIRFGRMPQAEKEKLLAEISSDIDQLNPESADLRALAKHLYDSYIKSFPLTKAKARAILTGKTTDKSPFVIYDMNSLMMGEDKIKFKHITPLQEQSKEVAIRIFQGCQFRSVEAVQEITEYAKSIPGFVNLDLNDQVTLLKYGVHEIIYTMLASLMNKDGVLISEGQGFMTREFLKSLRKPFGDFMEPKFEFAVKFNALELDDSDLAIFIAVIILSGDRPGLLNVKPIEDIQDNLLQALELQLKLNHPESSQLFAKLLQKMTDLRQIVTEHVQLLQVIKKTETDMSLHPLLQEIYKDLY
Description: Partial agonist activity at human PPARgamma-LBD expressed in CHO-K1 cells co-transfected with GAL4 assessed as luciferase activity by transactivation assay

Data set [2] concerns the target T2, Peroxisome proliferator-activated receptor gamma (Homo sapiens) (UniProt P37231).
T2 sequence (whole entry): T1 sequence (P37231 whole entry)
As to the kind of experiment: Partial agonist activity at human PPARgamma-LBD expressed in CHO-K1 cells co-transfected with GAL4 assessed as luciferase activity at […] by transactivation assay relative to rosiglitazone. It counts as functional, cell-based.

Data set [3] concerns the target T2, Peroxisome proliferator-activated receptor gamma (Homo sapiens). The experiment in a line: Partial agonist activity at human PPARgamma-LBD expressed in CHO-K1 cells co-transfected with GAL4 assessed as luciferase activity at 10 uM by transactivation assay. It counts as functional, cell-based.
Data set [4] can be described thus: Solubility in water. Format: physicochemical.
Data set [5] deals with Mus musculus. The experiment in a line: Antidiabetic activity in db/db mouse assessed as weight gain at 10 to 100 mg/kg, po qd for 7 days. It counts as functional, organism-based.
The test system of data set [6] is Mus musculus. The experiment in a line: Antidiabetic activity in db/db mouse assessed as reduction of plasma glucose level at 100 mg/kg, po qd for 7 days. It counts as functional. On the set-up: scale not given: the % may be the effect or the level left.
Data set [7] concerns Mus musculus. As to the kind of experiment: Antidiabetic activity in db/db mouse assessed as reduction of plasma glucose level at 30 mg/kg, po qd for 7 days. It counts as functional. Details: scale not given: the % may be the effect or the level left.
The subject of data set [8] is Mus musculus. The experiment in a line: Antidiabetic activity in db/db mouse assessed as reduction of plasma glucose level at 10 mg/kg, po qd for 7 days. Format: functional. Details: scale not given: the % may be the effect or the level left.
Data set [9] can be described thus: Oral bioavailability in mouse at 1 mg/kg. It counts as ADME, organism-based. Particulars: in vivo.
The nature of data set [10]: AUC in mouse at 1 mg/kg, iv. Details: dose 1 mg/kg, route intravenous. It counts as ADME, organism-based. Particulars: plasma.
A short description of data set [11]: Half life in mouse at 1 mg/kg, iv. It counts as ADME, organism-based. Details: dose 1 mg/kg, route intravenous. The settings on record: in vivo.
The nature of data set [12]: Volume of distribution in mouse at 1 mg/kg, iv. Format: ADME, organism-based. On the set-up: dose 1 mg/kg, route intravenous. Particulars: in vivo.
Data set [13] can be described thus: Clearance in mouse at 1 mg/kg, iv. It counts as ADME, organism-based. On the set-up: dose 1 mg/kg, route intravenous. The settings on record: in vivo.
For data set [14], the system named is 3T3-L1. As to the kind of experiment: Induction of adipogenesis in mouse blast 3T3L1 cells assessed as P2 mRNA expression level after 7 days […]. The settings on record: 3t3-l1, 168 h. It counts as cell-based.
Data set [15] can be described thus: AUC in mouse at 1 mg/kg, po. It counts as ADME, organism-based. On the set-up: dose 1 mg/kg, route oral. Particulars: plasma.
The nature of data set [16]: Plasma concentration in mouse at 1 mg/kg, iv after 10 mins. It counts as ADME, organism-based. On the set-up: dose 1 mg/kg, route intravenous.
Data set [17] has as its target T3, Peroxisome proliferator-activated receptor gamma (Rattus norvegicus, UniProt O88275).
T3 sequence (O88275 whole entry): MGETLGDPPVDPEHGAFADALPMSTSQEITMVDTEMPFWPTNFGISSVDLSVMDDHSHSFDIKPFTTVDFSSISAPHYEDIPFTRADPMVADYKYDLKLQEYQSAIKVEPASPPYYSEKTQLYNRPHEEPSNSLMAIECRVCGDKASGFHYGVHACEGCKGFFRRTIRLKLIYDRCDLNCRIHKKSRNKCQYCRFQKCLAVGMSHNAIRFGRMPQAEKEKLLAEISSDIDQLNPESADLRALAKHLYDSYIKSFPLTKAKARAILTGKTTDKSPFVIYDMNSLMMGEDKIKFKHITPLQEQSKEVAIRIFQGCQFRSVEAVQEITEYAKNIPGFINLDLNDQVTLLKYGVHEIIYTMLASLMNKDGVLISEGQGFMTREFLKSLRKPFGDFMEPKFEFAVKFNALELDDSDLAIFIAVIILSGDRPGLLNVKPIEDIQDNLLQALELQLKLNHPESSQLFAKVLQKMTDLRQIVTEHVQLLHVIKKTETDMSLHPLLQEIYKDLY
Description: Antagonist activity at rat PPARgamma-LBD expressed in CHO-K1 cells co-transfected with GAL4 assessed as inhibition of rosiglitazone-induced luciferase activity by transactivation assay

Data set [18] addresses T1, Peroxisome proliferator-activated receptor gamma. The source holds these as a separate data set.
Description: Antagonist activity at human PPARgamma-LBD expressed in CHO-K1 cells co-transfected with GAL4 assessed as inhibition of rosiglitazone-induced luciferase activity by transactivation assay
For data set [19], the target named is T3, Peroxisome proliferator-activated receptor gamma. This is another data set of the same source.
Description: Partial agonist activity at rat PPARgamma-LBD expressed in CHO-K1 cells co-transfected with GAL4 assessed as luciferase activity by transactivation assay
For data set [20], the target named is T4, Peroxisome proliferator-activated receptor gamma (Mus musculus, UniProt P37238).
T4 sequence (P37238 whole entry): T3 sequence (O88275 whole entry) with P8S, D54E, S383N
Description: Antagonist activity at mouse PPARgamma-LBD expressed in CHO-K1 cells co-transfected with GAL4 assessed as inhibition of rosiglitazone-induced luciferase activity by transactivation assay

Data set [21] deals with T4, Peroxisome proliferator-activated receptor gamma. This is another data set of the same source.
Description: Partial agonist activity at mouse PPARgamma-LBD expressed in CHO-K1 cells co-transfected with GAL4 assessed as luciferase activity by transactivation assay
In data set [22] the test system is 3T3-L1. As to the kind of experiment: Induction of adipogenesis in mouse 3T3L1 cells assessed as increase in lipid accumulation by Oil red O staining.
In data set [23] the test system is Mus musculus. The experiment in a line: Antidiabetic activity in db/db mouse assessed as weight gain at 3 to 10 mg/kg, po qd for 7 days. Format: functional, organism-based.
Data set [24] has as its system 3T3-L1. As to the kind of experiment: Induction of adipogenesis in mouse mature 3T3L1 cells assessed as P2 mRNA expression level after 10 days […]. It counts as cell-based. Particulars: 3t3-l1, 240 h.

Molecules are shown by their SMILES. Residue numbers refer to the chain shown, from its start. Converted amounts (≈) assume the structure as drawn. The source made the active and inactive calls.

Molecule `CCCCCCCCSc1nc(NCc2ccccc2)c(C(=O)O)c(SCc2ccccc2)n1` registered an EC50 in [1] of 950 nM.
`CSc1nc(NCc2ccccc2)c(C(=O)O)c(-c2cccs2)n1`: in data set [2], the result was inactive. The same molecule had an EC50 in [1] of more than 10000 nM.
As to `CSc1nc(NCc2ccccn2)c(C(=O)O)c(SCc2ccccc2)n1`, in data set [1], the response was half-maximal at 250 nM (EC50).
With `CSc1nc(C)c(C(=O)NCc2ccccc2)c(NCc2ccccc2)n1`, in data set [3], the result was inactive.
For the molecule `CSc1nc(NCc2ccncc2)c(C(=O)O)c(SCc2ccccc2)n1`, the EC50 in [1] amounted to 2700 nM.
The molecule `CCCCSc1nc(NCc2ccccc2)c(C(=O)O)c(SCc2ccccc2)n1` displayed a 50% effective concentration (EC50) in data set [1] of 550 nM.
Still for that read-out and setting: next, `CSc1nc(NC2CC2)c(C(=O)O)c(SCc2ccccc2)n1`: 1800 nM.
Still for that read-out and setting: for `CCCCCCCNc1nc(NCc2ccccc2)c(C(=O)O)c(SCc2ccccc2)n1` the value was 250 nM; for `CCCCN(C)c1nc(NCc2ccccc2)c(C(=O)O)c(SCc2ccccc2)n1`, 420 nM.
The same measure, in the same setting: for `CSc1nc(Nc2ccccc2)c(C(=O)O)c(SCc2ccccc2)n1` the value was 1600 nM.
Turning to `CSc1nc(NCc2ccccc2)c(C(=O)O)c(SCc2ccccc2)n1`, in [4], the solubility is less than 1 µg/mL. This molecule yielded a half-maximal effective concentration (EC50) in data set [1] of 180 nM.
`O=C(O)c1c(NCc2ccccc2)ncnc1SCc1ccccc1`: in data set [1], the EC50 is more than 10000 nM.
Same read-out and setting: for `CSc1nc(NCc2ccccc2)c(C(=O)O)c(OCc2ccccc2)n1` the value was 2300 nM.
For `CSc1nc(SCc2ccccc2)c(C(=O)O)c(SCc2ccccc2)n1`, the result in the data set on Mus musculus [5] was inactive. The Activity in the data set with Mus musculus [6] is 77%; in the data set on Mus musculus [7] it was 56%; in the data set with Mus musculus [8] it was 27%; in the data set on 3T3-L1 [14] it was “Not Active”; with 3T3-L1 [22], “Active”. This molecule displayed a bioavailability in data set [9] of 35.8%. In addition, the values for the AUC in data set [10] and in data set [15] were 8860 ng·h/mL and 3170 ng·h/mL, respectively. Besides, the half-life in [11] was 45.6 min. For the same molecule, the distribution volume (Vd) in data set [12] turned out to be 0.12 L/kg. Further, the clearance in data set [13] came out at 1.88 mL/min/kg. In addition, the concentration in solution in data set [4] (solubility) came to 43.7 µg/mL (≈ 105 µM). For the same molecule, the concentration at 10 min in data set [16] is 6890 ng/mL. Besides, the values for the IC50 in data set [17], in [18] and in [20] were 539 nM, 1790 nM and 1770 nM, respectively. Moreover, the figures for the EC50 in data set [19], in data set [1] and in [21] were 158 nM, 140 nM and 158 nM, respectively.
In data set [1], `CCCCNc1nc(NCc2ccccc2)c(C(=O)O)c(SCc2ccccc2)n1` displayed an EC50 of 470 nM.
Still for that read-out and setting: for `CSc1nc(NCC2CCCCC2)c(C(=O)O)c(SCc2ccccc2)n1` the value was 300 nM; for `CSc1nc(Cl)c(C(=O)NCc2ccccc2)c(NCc2ccccc2)n1`, 5000 nM; for `CNc1nc(SC)nc(SCc2ccccc2)c1C(=O)O`, more than 10000 nM.
As to `CSc1nc(NCCc2ccccc2)c(C(=O)O)c(SCc2ccccc2)n1`, in [1], the EC50 turned out to be 670 nM.
On the same count and under the same terms, for `CSc1nc(NCc2cccnc2)c(C(=O)O)c(SCc2ccccc2)n1` the value was 740 nM.
As to `CN(CCOc1ccc(CC2SC(=O)NC2=O)cc1)c1ccccn1` (stereo not drawn) [ROSIGLITAZONE], the result in the data set with Mus musculus [23] was inactive. Besides, the Activity in the data set on Mus musculus [8] is 67%; with 3T3-L1 [24], “Dose-dependent effect”; in the data set on 3T3-L1 [14], “Dose-dependent effect”; in the data set on 3T3-L1 [22] it was “Active”.
`CCCNc1nc(SC)nc(SCc2ccccc2)c1C(=O)O` yielded an EC50 in [1] of more than 10000 nM.
The same measure, in the same setting: next, `CCCCN(CCCC)c1nc(NCc2ccccc2)c(C(=O)O)c(SCc2ccccc2)n1`: more than 10000 nM.
